Laboratory results as given in PubChem BioAssay AID248 (DTP/NCI, 2004).
Toxic doses and inconclusive results are not listed.

Test system: L1210 leukemia ip in BDF1 mice, survival T/C
Assay: NCI In Vivo Anticancer Drug Screen. Data for tumor model L1210 Leukemia (intraperitoneal) in B6D2F1 (BDF1) mice
Conditions: endpoint: mean survival time, higher = longer survival
In short: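 Tumor was transplanted into mice, which were then dosed with test compound or vehicle alone. Survival was recorded for each group, and the treated figure was expressed relative to the control figure.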

[1] = dose: 50.0 mg/kg/injection, schedule: Q04DX002 (ip), vehicle: saline with Tween-80
[2] = dose: 100.0 mg/kg/injection, schedule: Q04DX002 (ip), vehicle: Klucel (hydroxypropylcellulose) (HPC)
[3] = dose: 100.0 mg/kg/injection, schedule: Q04DX002 (ip), vehicle: saline with Tween-80
[4] = dose: 200.0 mg/kg/injection, schedule: Q04DX002 (ip), vehicle: Klucel (hydroxypropylcellulose) (HPC)
[5] = dose: 200.0 mg/kg/injection, schedule: Q04DX002 (ip), vehicle: saline with Tween-80
[6] = dose: 100.0 mg/kg/injection, schedule: Q01DX001 (ip), vehicle: saline
[7] = dose: 200.0 mg/kg/injection, schedule: Q01DX001 (ip), vehicle: saline
[8] = dose: 400.0 mg/kg/injection, schedule: Q01DX001 (ip), vehicle: saline
[9] = dose: 100.0 mg/kg/injection, schedule: Q04DX003 (ip), vehicle: saline
[10] = dose: 200.0 mg/kg/injection, schedule: Q04DX003 (ip), vehicle: saline
[11] = dose: 400.0 mg/kg/injection, schedule: Q04DX003 (ip), vehicle: saline
[12] = dose: 75.0 mg/kg/injection, schedule: Q01DX001 (ip), vehicle: carboxymethylcellulose (CMC)
[13] = dose: 150.0 mg/kg/injection, schedule: Q01DX001 (ip), vehicle: carboxymethylcellulose (CMC)
[14] = dose: 300.0 mg/kg/injection, schedule: Q01DX001 (ip), vehicle: carboxymethylcellulose (CMC)
[15] = dose: 50.0 mg/kg/injection, schedule: Q01DX001 (ip), vehicle: saline
[16] = dose: 100.0 mg/kg/injection, schedule: Q01DX001 (ip), vehicle: carboxymethylcellulose (CMC)
[17] = dose: 200.0 mg/kg/injection, schedule: Q01DX001 (ip), vehicle: carboxymethylcellulose (CMC)
[18] = dose: 400.0 mg/kg/injection, schedule: Q01DX001 (ip), vehicle: carboxymethylcellulose (CMC)
[19] = dose: 50.0 mg/kg/injection, schedule: Q01DX009 (ip), vehicle: saline with Tween-80
[20] = dose: 100.0 mg/kg/injection, schedule: Q01DX009 (ip), vehicle: saline with Tween-80
[21] = dose: 200.0 mg/kg/injection, schedule: Q01DX009 (ip), vehicle: saline with Tween-80
[22] = dose: 100.0 mg/kg/injection, schedule: Q04DX003 (ip), vehicle: saline with Tween-80
[23] = dose: 200.0 mg/kg/injection, schedule: Q04DX003 (ip), vehicle: saline with Tween-80
[24] = dose: 400.0 mg/kg/injection, schedule: Q04DX003 (ip), vehicle: saline with Tween-80
[25] = dose: 400.0 mg/kg/injection, schedule: Q01DX009 (ip), vehicle: saline with Tween-80

`C1=C(c2ccccc2)N(Cc2ccccc2)C(c2ccccc2)=CN1Cc1ccccc1` was tested, and the T/C [1] was 105 % of control, the T/C [2] was 107 % of control and the T/C [3] was 96 % of control. The T/C [4] was 96 % of control, the T/C [5] was 96 % of control and the T/C (dose: 400.0 mg/kg/injection, schedule: Q04DX002 (ip), vehicle: Klucel (hydroxypropylcellulose) (HPC)) was 111 % of control.
In the case of `CCCCCCC(C)OC(=O)CCSCCC(=O)OC(C)CCCCCC` (stereo not drawn), the T/C [6] is reported as 98 % of control, the T/C [7] is reported as 94 % of control and the T/C [8] is reported as 86 % of control.
In the case of `O=C(O)CNC(=O)c1ccc(C(=O)NCC(=O)O)cc1`, the T/C [9] is reported as 106 % of control, the T/C [10] is reported as 105 % of control and the T/C [11] is reported as 97 % of control.
For `O=[N+]([O-])c1ccccc1/C=C/C=N/N=C/c1ccccc1O`, the T/C (dose: 75.0 mg/kg/injection, schedule: Q01DX001 (ip), vehicle: other) was 94 % of control, the T/C (dose: 150.0 mg/kg/injection, schedule: Q01DX001 (ip), vehicle: other) was 95 % of control and the T/C (dose: 300.0 mg/kg/injection, schedule: Q01DX001 (ip), vehicle: other) was 88 % of control.
In the case of `ICC1OC(c2ccccc2)OC2C(CI)OC(c3ccccc3)OC12` (stereo not drawn), the T/C [12] is reported as 95 % of control, the T/C [13] is reported as 93 % of control and the T/C [14] is reported as 88 % of control.
With `CN(C)c1ccc(/C=N/Nc2nnc(N/N=C/c3ccc(N(C)C)cc3Cl)c3ccccc23)c(Cl)c1` the T/C [15] was 102 % of control, the T/C [6] was 100 % of control and the T/C [7] was 100 % of control. For the same compound, the T/C [8] was 92 % of control.
In the case of `CCC(CC)(C1CCC(O)CC1)C1CCC(O)CC1` (stereo not drawn), the T/C [12] is reported as 93 % of control, the T/C [13] is reported as 91 % of control and the T/C [14] is reported as 89 % of control.
`CCCCN(CCCC)C(C)=O` was tested, and the T/C [15] was 94 % of control, the T/C [1] was 109 % of control and the T/C [6] was 100 % of control. The T/C [3] was 95 % of control, the T/C [7] was 100 % of control and the T/C [5] was 98 % of control.
`COC(CC[P+](c1ccccc1)(c1ccccc1)c1ccccc1)(C(=O)c1ccccc1)c1ccccc1` (stereo not drawn) was tested, and the T/C (dose: 15.0 mg/kg/injection, schedule: Q01DX001 (ip), vehicle: carboxymethylcellulose (CMC)) was 96 % of control, the T/C (dose: 30.0 mg/kg/injection, schedule: Q01DX001 (ip), vehicle: carboxymethylcellulose (CMC)) was 90 % of control and the T/C (dose: 60.0 mg/kg/injection, schedule: Q01DX001 (ip), vehicle: carboxymethylcellulose (CMC)) was 89 % of control.
`CCCCCCCC(=O)N1C(C)CCC1C` (stereo not drawn) was tested, and the T/C (dose: 100.0 mg/kg/injection, schedule: Q04DX002 (ip), vehicle: saline) was 94 % of control, the T/C (dose: 200.0 mg/kg/injection, schedule: Q04DX002 (ip), vehicle: saline) was 94 % of control and the T/C (dose: 400.0 mg/kg/injection, schedule: Q04DX002 (ip), vehicle: saline) was 98 % of control.
In the case of `CCCCCCOc1ccc(C(=O)C(=O)c2ccccc2)cc1`, the T/C [16] is reported as 109 % of control, the T/C [17] is reported as 88 % of control and the T/C [18] is reported as 97 % of control.
For `CC(C)=CCC/C(C)=C/CO`, the T/C [19] was 92 % of control, the T/C [16] was 95 % of control and the T/C [20] was 98 % of control. For the same compound, the T/C [17] was 108 % of control, the T/C [21] was 98 % of control and the T/C [18] was 101 % of control.
For `CCOC(=O)c1cc(=O)n(-c2ccc([N+](=O)[O-])cc2)n1C`, the T/C [22] was 94 % of control, the T/C [23] was 92 % of control and the T/C [24] was 94 % of control.
With `CCCCCCCCCCCCCC(=O)[O][Hg][c]1ccccc1` the T/C (dose: 75.0 mg/kg/injection, schedule: Q01DX001 (ip), vehicle: steriod suspending solution) was 96 % of control.
In the case of `CC1=CCC(=O)C2(C)CC(O)C(C(C)C(=O)O)C=C12` (stereo not drawn), the T/C (dose: 100.0 mg/kg/injection, schedule: Q04DX003 (ip), vehicle: acetone) is reported as 97 % of control, the T/C (dose: 200.0 mg/kg/injection, schedule: Q04DX003 (ip), vehicle: acetone) is reported as 95 % of control and the T/C (dose: 400.0 mg/kg/injection, schedule: Q04DX003 (ip), vehicle: acetone) is reported as 105 % of control.
With `Cc1ccc(NS(=O)(=O)c2ccccc2)cc1` the T/C [20] was 106 % of control, the T/C [22] was 104 % of control and the T/C [9] was 93 % of control. The T/C [21] was 101 % of control, the T/C [23] was 100 % of control and the T/C [10] was 101 % of control. For the same compound, the T/C [25] was 103 % of control, the T/C [24] was 104 % of control and the T/C [11] was 106 % of control.
`O=C(O)CN1C(=O)CSC1=S` was tested, and the T/C [20] was 655 % of control, the T/C [21] was 91 % of control and the T/C [25] was 89 % of control.
`O=C(Nc1ccc(Br)cc1)Oc1ccccc1C(=O)OCc1ccccc1` was tested, and the T/C [2] was 97 % of control and the T/C [4] was 87 % of control.
With `O=[N+]([O-])c1ccc(N/N=C/C(c2ccccc2)c2ccsc2)c([N+](=O)[O-])c1` (stereo not drawn) the T/C (dose: 50.0 mg/kg/injection, schedule: Q04DX003 (ip), vehicle: saline) was 104 % of control, the T/C (dose: 100.0 mg/kg/injection, schedule: Q01DX001 (ip), vehicle: saline with Tween-80) was 97 % of control and the T/C [9] was 106 % of control. For the same compound, the T/C (dose: 200.0 mg/kg/injection, schedule: Q01DX001 (ip), vehicle: saline with Tween-80) was 96 % of control and the T/C [10] was 104 % of control.
In the case of `Cc1ccc(C)c(Nc2nc(Cl)nc3ncn(C)c23)c1`, the T/C (dose: 100.0 mg/kg/injection, schedule: Q01DX001 (ip), vehicle: other) is reported as 103 % of control, the T/C (dose: 100.0 mg/kg/injection, schedule: Q04DX003 (ip), vehicle: other) is reported as 102 % of control and the T/C (dose: 200.0 mg/kg/injection, schedule: Q01DX001 (ip), vehicle: other) is reported as 90 % of control. The T/C (dose: 200.0 mg/kg/injection, schedule: Q04DX003 (ip), vehicle: other) was 117 % of control, the T/C (dose: 400.0 mg/kg/injection, schedule: Q01DX001 (ip), vehicle: other) was 94 % of control and the T/C (dose: 400.0 mg/kg/injection, schedule: Q04DX003 (ip), vehicle: other) was 110 % of control.
With `O=C(/C=C/c1ccccc1)NC12CC3CC(CC(C3)C1)C2` the T/C [9] was 91 % of control, the T/C [10] was 93 % of control and the T/C [11] was 100 % of control.
`COc1cc(C(=O)CO)cc(OC)c1OC(C)=O` was tested, and the T/C (dose: 5.0 mg/kg/injection, schedule: Q01DX001 (ip), vehicle: saline) was 97 % of control, the T/C (dose: 10.0 mg/kg/injection, schedule: Q01DX001 (ip), vehicle: saline) was 103 % of control and the T/C (dose: 20.0 mg/kg/injection, schedule: Q01DX001 (ip), vehicle: saline) was 89 % of control. For the same compound, the T/C (dose: 40.0 mg/kg/injection, schedule: Q01DX001 (ip), vehicle: saline) was 97 % of control and the T/C (dose: 80.0 mg/kg/injection, schedule: Q01DX001 (ip), vehicle: saline) was 92 % of control.
In the case of `NC(=O)N/C=N/N=C(N)N`, the T/C (dose: 15.0 mg/kg/injection, schedule: Q01DX Z (ip), vehicle: methylcellulose (MC)) is reported as 101 % of control, the T/C (dose: 30.0 mg/kg/injection, schedule: Q01DX Z (ip), vehicle: methylcellulose (MC)) is reported as 107 % of control and the T/C (dose: 60.0 mg/kg/injection, schedule: Q01DX Z (ip), vehicle: methylcellulose (MC)) is reported as 108 % of control. For the same compound, the T/C (dose: 120.0 mg/kg/injection, schedule: Q01DX Z (ip), vehicle: methylcellulose (MC)) was 108 % of control, the T/C (dose: 240.0 mg/kg/injection, schedule: Q01DX Z (ip), vehicle: methylcellulose (MC)) was 94 % of control and the T/C (dose: 420.0 mg/kg/injection, schedule: Q01DX Z (ip), vehicle: methylcellulose (MC)) was 94 % of control. The T/C (dose: 600.0 mg/kg/injection, schedule: Q01DX Z (ip), vehicle: methylcellulose (MC)) was 86 % of control.
In the case of `CC/C(=C/c1cccc(OC)c1OC)[N+](=O)[O-]`, the T/C (dose: 12.5 mg/kg/injection, schedule: Q01DX009 (ip), vehicle: saline with Tween-80) is reported as 105 % of control, the T/C (dose: 25.0 mg/kg/injection, schedule: Q01DX009 (ip), vehicle: saline with Tween-80) is reported as 98 % of control and the T/C [19] is reported as 96 % of control. For the same compound, the T/C [22] was 107 % of control and the T/C [23] was 90 % of control.
